Drawing on publication doi:10.1101/2023.10.11.561987v1, “Resolving the pharmacological redox-sensitivity of SARS-CoV-2 PLpro in drug repurposing screening enabled identification of the competitive GRL-0617 binding site inhibitor CPI-169” (biorxiv, 2023), this text covers IC50 for 2 molecules.

The term IC50 denotes the concentration at which inhibition is half-maximal.

The target of this test is T1, SARS-CoV-2 PLpro-NAB (Severe acute respiratory syndrome coronavirus 2, UniProt P0DTD1).
T1 construct: gene rep; nsp3 fragment with PLpro and NAB domains, cut from replicase polyprotein 1a/1ab; His tag removed by TEV; E. coli BL21(DE3), pET24b
The test is described as follows: biochemical. The test is classed as biochemical.

In the case of `Cc1nc2c(=O)n(C)c(=O)nc-2n(C)n1` [3-Methyl Toxoflavin], the IC50 worked out at 0.074 µM.
The value for `NC(Cc1cc(O)c(O)cc1O)C(=O)O` (racemic) [6-Hydroxy-DL-DOPA] was > 20 µM.
